Measurements: patent publication US5856529A, “Benzofuran and dihydrobenzofuran melatonergic agents” (Bristol-Myers Squibb Company, priority 1997, dated 1999)

Biological target: T1, ML1a human melatonin receptor (Homo sapiens, UniProt P48039)
T1 construct: expressed in transfected cells
Experiment: Melatonergic Receptor Binding Activity (2-[125I]-iodomelatonin, membranes of NIH-3T3 cells expressing ML1a receptor)
Conditions: 37° C. for 1 hour, read-out: Melatonin Binding Affinity (IC50)
Method: Melatonergic Receptor Binding Activity
(a) TME=50 mM Tris buffer containing 12.5 mM MgCl2, and 2 mM EDTA, pH 7.4 at 37° C. with concentrated HCl.
(b) Wash buffer: 20 mM Tris base containing 2 mM MgCl2, pH 7.4 at room temperature.
(c) 10^-4 M melatonin (10^-5 M final concentration).
(d) 2-[^125 I]-iodomelatonin, […] final concentration
The melatonin ML1a receptor cDNA was subcloned into pcDNA3 and introduced into NIH-3T3 cells using Lipofectamine. Transformed NIH-3T3 cells resistant to geneticin (G-418) were isolated, and single colonies expressing high levels of 2[^125 I]-iodomelatonin binding were isolated. Cells are maintained in DMEM supplemented with 10% calf serum and G-418 (0.5 g/liter). Cells are grown to confluency in T-175 flasks, scraped using Hank's balanced salt solution, and frozen at -80° C. For preparing membrane homogenates, pellets are thawed on ice, and resuspended in TME buffer in the presence of 10 μg/ml aprotinin and leupeptin, and 100 μM phenylmethylsulfonylfluoride. The cells were then homogenized using a dounce homogenizer, and centrifuged. The resulting pellet was resuspended with dounce homogenizer in TME (supplemented with the above protease inhibitors) and frozen. On the day of assay, the small aliquot was thawed on ice and resuspended in ice cold TME (1:50-1:100 v/v) and held on ice until assayed.
3. Incubation: 37° C. for 1 hour. Reaction is terminated by filtration. Filters are washed 3 times.

T1 sequence (P48039 whole entry): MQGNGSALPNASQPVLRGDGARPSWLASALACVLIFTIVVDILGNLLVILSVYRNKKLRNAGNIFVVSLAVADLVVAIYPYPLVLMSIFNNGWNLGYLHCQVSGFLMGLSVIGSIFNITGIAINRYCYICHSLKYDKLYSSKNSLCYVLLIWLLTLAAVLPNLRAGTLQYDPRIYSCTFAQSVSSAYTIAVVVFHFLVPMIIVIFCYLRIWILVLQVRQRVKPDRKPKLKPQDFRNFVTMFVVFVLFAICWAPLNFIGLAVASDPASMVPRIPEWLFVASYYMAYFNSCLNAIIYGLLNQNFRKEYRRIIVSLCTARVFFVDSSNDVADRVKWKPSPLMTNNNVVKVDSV

SMILES	IC50 [nM]
CC(=O)NC[C@@H]1C[C@H]1c1cccc2c1OCO2 (relative stereo) [Example 3, (trans)-N-[[2-(1,3-benzodioxol-4-yl)cycloprop-1-yl]methyl]acetamide]	< 10
CC(C)C(=O)NC[C@@H]1C[C@H]1c1cccc2c1OCO2 (relative stereo) [Example 11, (trans)-N-[[2-(1,3-benzodioxol-4-yl)cycloprop-1-yl]methyl]-2-methylpropanamide]	10 to 100
O=C(NC[C@@H]1C[C@H]1c1cccc2c1OCCO2)C1CC1 (relative stereo) [Example 18, (trans)-N-[[2-(2,3-dihydro-1,^4-benzodioxin-5-yl)cycloprop-1-yl]-methyl]cyclopropane carboxamide]	10 to 100
CCC(=O)NC[C@@H]1C[C@H]1c1cccc2occc12 (relative stereo) [Example 23, (trans)-N-[[2-(benzofuran-4-yl)cycloprop-1-yl]methyl]propanamide]	< 10
CCC(=O)NC[C@@H]1C[C@H]1c1cccc2c1CCO2 (relative stereo) [Example 29, (trans)-N-[[2-(2,3-dihydrobenzofuran-4-yl)cycloprop-1-yl]methyl] propanamide]	< 10
CCCC(=O)NC[C@@H]1C[C@H]1c1cccc2c1CCO2 (relative stereo) [Example 30, (trans)-N-[[2-(2,3-dihydrobenzofuran-4-yl)cycloprop-1-yl]methyl] butanamide]	< 10
CC(=O)NC[C@@H]1C[C@H]1c1cccc2c1OCCCO2 (relative stereo) [Example 60]	10 to 100
CCC(=O)NC[C@@H]1C[C@H]1c1cccc2c1CCCCO2 (relative stereo) [Example 61]	100 to 250
O=C(NC[C@@H]1C[C@H]1c1cccc2c1OCC2)C1CC1 (relative stereo) [Example 67]	10 to 100
CCCC(=O)NC[C@@H]1C[C@H]1c1cccc2oc(C)cc12 (relative stereo) [Example 76, (trans)-N-[[2-(2-methyl-benzofuran-4-yl)cycloprop-1-yl]methyl]-butanamide]	< 10
O=C(NC[C@@H]1C[C@H]1c1cccc2ccoc12)C1CC1 (relative stereo) [Example 80, (trans)-N-[[2-(benzofuran-7-yl)cycloprop-1-yl]methyl]-cyclopropanecarboxamide]	10 to 100
CCC(=O)NC[C@@H]1C[C@H]1c1cccc2c1CCO2 (single isomer, unassigned) [Example 2, (-)-(trans)-N-[[2-(2,3-Dihydrobenzofuran-4-yl)cycloprop-1-yl]methyl]propanamide]	< 10
CCC(=O)NC[C@@H]1C[C@H]1c1cccc2c1CCCO2 (single isomer, unassigned) [Example 42, (-)-(trans)-N-[[2-(3,4-dihydro-2H-1-benzopyran-5-yl)cycloprop-1-yl]methyl]propanamide]	10 to 100
C=CC(=O)NC[C@@H]1C[C@H]1c1cccc2c1OCCO2 (single isomer, unassigned) [Example 52]	< 10
O=C(NC[C@@H]1C[C@H]1c1cccc2c1OCCO2)C(F)(F)F (single isomer, unassigned) [Example 54, (-)-(trans)-N-[[2-(2,3-dihydro-1,4-benzodioxin-5-yl)cycloprop-1-yl]methyl]trifluoroacetamide]	< 10
CCC(=O)NC[C@@H]1C[C@H]1c1cccc2c1CCCO2 (single isomer, unassigned) [Example 96, (+)-(trans)-N-[[2-(3,4-dihydro-2H-1-benzopyran-5-yl)cycloprop-1-yl]methyl]propanamide]	< 10
CCC(=O)NC[C@@H]1C[C@H]1c1cccc2c1CC(C)O2 (single isomer, unassigned; (+)) [Example 82, (+)-(trans)-N-[[2-(2-methyl-2,3-dihydrobenzofuran-4-yl)cycloprop-1-yl]methyl]propanamide]	< 10
CCC(=O)NC[C@@H]1C[C@H]1c1cccc2c1CC(C)O2 (single isomer, unassigned; (-)) [Example 88, (-)-(trans)-N-[[^2-(2-methyl-2,3-dihydrobenzofuran-4-yl)cycloprop-1-yl]methyl]propanamide]	< 10
CCC(=O)NCC1C(c2cccc3oc(C)cc23)C1(F)F (stereo not shown) [Example 95, N-[[2-(2-Methyl-4-benzofuranyl)-3,3-difluorocyclopropanyl]-methyl]propanamide]	10 to 100
